# Measurements taken from patent US20100190751A1, “NOVEL COMBINATION OF NERAMEXANE FOR TREATMENT OF NERORDEGENERATIE DISORDERS” (MERZ PHARMA GmbH & CO. KGaA, priority 2007, published 2010).
# What was measured:
# [1] = system: SOD1(G93A) transgenic mouse model of ALS; experiment: Motor performance in the running wheel, SOD1(G93A) ALS mouse model; assay type: in vivo; conditions: for Disease Progression (Rev's per 12 hours/day) / Half Maximum Performance / Presymptomatic Performance (Rev's per 12 hours): both gender; for Half Maximum Performance, Difference: versus vehicle control 106.1; for Presymptomatic Performance, Difference (rp 12 hours): versus vehicle control 19,518; for Disease Progression, Difference: versus vehicle control −17.862
# Protocol: Drug treatment starts at day 45.
# Memantine is supplied by MERZ pharmaceuticals. […] Drugs are dissolved in drinking water. […] Memantine is administered twice a day subcutaneously.
# Consumption of drinking water is checked randomly.
# 4. Motor Performance in the running wheel
# [2] = system: SOD1(G93A) ALS-mouse model; conditions: Wang et al. 2005; cited from earlier work
# [3] = system: SOD1(G93A) transgenic mouse model of ALS; conditions: both gender; for Age of Disease Onset, Mean age / Age of First Paresis, Mean age / Disease Endstage - Survival, Mean age: treatment from day 45; for Age of Disease Onset, Mean age: riluzole 35 mg/kg day and neramexane (dosage adapted to gender, 50 male/150 female) in drinking water, memantine 20 mg/kg day s.c.; for Age of First Paresis, Mean age / Disease Endstage - Survival, Mean age: same doses as Table 1; for Age of Disease Onset, Difference compared to control: versus vehicle control mean 106.6; for Age of First Paresis, Difference compared to control: versus vehicle control mean 119.7; for Disease Endstage - Survival, Difference compared to control: versus vehicle control mean […]
SMILES,Disease Progression (Rev's per 12 hours/day) [1] [Rev's per 12 hours/day],Half Maximum Performance [1] [days],Presymptomatic Performance (Rev's per 12 hours) [1],"Half Maximum Performance, Difference [1] [days]","Presymptomatic Performance, Difference (rp 12 hours) [1]","Disease Progression, Difference [1]",Effects regarding disease progression and survival [2],"Age of Disease Onset, Median age [3] [days]","Age of First Paresis, Median age [3] [days]","Disease Endstage - Survival, Median age [3] [days]","Age of Disease Onset, Mean age [3] [days]","Age of First Paresis, Mean age [3] [days]","Disease Endstage - Survival, Mean age [3] [days]","Age of Disease Onset, Difference compared to control [3] [days]","Age of First Paresis, Difference compared to control [3] [days]","Disease Endstage - Survival, Difference compared to control [3] [days]"
CC12CC3CC(C)(C1)CC(N)(C3)C2 [Memantine],−22.528,110.5,"10,784 Rev's per 12 hours",4.4,"−8,734 rp 12 hours",−4.666,positive effects,107.5,123.0,134.0,108.5,123.7,134.4,1.9,4.0,5.1
"CC1(C)CC(C)(C)CC(C)(N)C1 [Neramexane, 1-amino-1,3,3,5,5-pentamethylcyclohexane]",−16.108,109.2,"21,096 Rev's per 12 hours",3.1,"1,578 rp 12 hours",1.754,,107.0,124.0,135.0,107.8,123.7,135.1,1.2,4.0,5.8
"Nc1nc2ccc(OC(F)(F)F)cc2s1 [Riluzole, 2-amino-6-trifluromethoxybenzothiazole]",−14.015,,"20,565 Rev's per 12 hours",,"1,047 rp 12 hours",3.847,,105.0,119.0,,106.3,120.0,,-0.3,0.3,
